Data reported in ChEMBL document CHEMBL1140453, “Solid-phase synthesis and thermal denaturation study of cyclic PNAs targeting the HIV-1 TAR RNA loop” (Bioorg Med Chem Lett, 2007).

Experiments:
Nucleic Acid [1] = experiment: Binding affinity to HIV1 3B mini TAR RNA assessed as melting temperature by UV spectrometry based thermal denaturation assay; assay type: nucleic-acid assay; settings: Human immunodeficiency virus 1
Nucleic Acid [2] = experiment: Binding affinity to HIV1 3B mini TAR RNA assessed as change in melting temperature by UV spectrometry based thermal denaturation assay; assay type: nucleic-acid assay; settings: Human immunodeficiency virus 1

Row | Tm (Nucleic Acid [1]) [°C] | ΔTm (Nucleic Acid [2]) [°C] | Structure (SMILES)
1 | 43.2 |  | Cc1cn(CC(=O)N(CCNC(=O)CN(CCNC(=O)[C@@H](N)CCCCN)C(=O)Cn2cnc3c(=O)[nH]c(N)nc32)CC(=O)NCCN(CC(=O)NCCN(CC(=O)NCCN(CC(=O)NCCN(CC(=O)NCCN(CC(=O)NCCN(CC(=O)N[C@@H](CCC(N)=O)C(=O)O)C(=O)Cn2cnc3c(N)ncnc32)C(=O)Cn2cnc3c(=O)[nH]c(N)nc32)C(=O)Cn2cnc3c(N)ncnc32)C(=O)Cn2ccc(N)nc2=O)C(=O)Cn2cnc3c(N)ncnc32)C(=O)Cn2ccc(N)nc2=O)c(=O)[nH]c1=O
2 | 40.5 | 0.5 | Cc1cn(CC(=O)N(CCNC(=O)CN(CCNC(=O)[C@@H](N)CCCCN)C(=O)Cn2cnc3c(=O)[nH]c(N)nc32)CC(=O)NCCN(CC(=O)NCCN(CC(=O)NCCN(CC(=O)NCCN(CC(=O)NCCN(CC(=O)NCCN(CC(=O)N[C@@H](CCC(N)=O)C(=O)O)C(=O)Cn2cnc3c(N)ncnc32)C(=O)Cn2cnc3c(=O)[nH]c(N)nc32)C(=O)Cn2cnc3c(N)ncnc32)C(=O)Cn2ccc(N)nc2=O)C(=O)Cn2ccc(N)nc2=O)C(=O)Cn2ccc(N)nc2=O)c(=O)[nH]c1=O
